Measurements: article PMC3090393, “New Noncovalent Inhibitors of Penicillin-Binding Proteins from Penicillin-Resistant Bacteria” (PLoS ONE, 2011)
≈ marks a conversion by molar mass, not a printed value. Like-named read-outs stand apart in the source and are kept apart here.

How the values were obtained:
[1] = target: T1, PBP2a (Staphylococcus aureus, UniProt P07944); experiment: PBP2a enzymatic inhibition assay (fluorescein-labeled ampicillin, residual penicillin binding activity); type: biochemical, Staphylococcus aureus ATCC 43300
T1 construct: made in house
Method: PBP2a from Staphylococcus aureus ATCC 43300 and PBP5fm from Enterococcus faecium D63r were overproduced and purified as described previously, [18].
Each of the purified PBPs (2.5 µM) were first incubated with 1 mM potential inhibitor in 100 mM phosphate buffer, 0.01% Triton X-100[19], pH 7, for 4 h at 30°C. Then, 25 µM fluorescein-labeled ampicillin[20] was added to detect the residual penicillin binding activity (RA). The samples were further incubated for 30 min at 37°C in a total volume of 20 µL. Denaturation buffer was added (0.1 M Tris/HCl, pH 6.8, containing 25% glycerol, 2% SDS, 20% β-mercaptoethanol and 0.02% bromophenol blue) and the samples were heated to 100°C for 1 min. The samples were then loaded onto a 10% SDS-acrilamide gel (10×7 cm) and electrophoresis was performed for 45 min at 180 V (12 mA). Detection and quantification of the RAs were with Molecular Image FX equipment and Quantity One software (BioRad, Hercules, CA, USA). Three independent experiments were carried out for each inhibitor.

[2] = tested on: Bacillus subtilis ATCC 6633; experiment: In-vitro antibacterial activity (MIC, broth microdilution); type: cell-based; conditions: ATCC6633
Method: (§1) Determination of the antibacterial activities was carried out on microtiter plates, in 200 µL (final volume) of Müeller-Hinton Broth (MHB), following EUCAST (European Committee on Antimicrobial Susceptibility testing)/CLSI (Clinical and Laboratory Standard Institute) recommended procedures, [25]. The compounds were solubilized in MHB, just before use. Inocula were prepared for each strain by resuspending isolated colonies from 18 h cultured plates. Equivalents of 0.5 Mac Farland turbidity standards (approximately 1×10^8 CFU mL^−1) were prepared in saline solution ([…]) and then diluted 200-fold in MBH.

[3] = tested on: Citrobacter freundii ATCC 8090; experiment: as above; type: cell-based; conditions: ATCC8090
Method: as §1

[4] = tested on: Enterococcus faecalis ATCC 29212; experiment: as above; type: cell-based; conditions: ATCC29212
Method: as §1

[5] = tested on: Enterococcus faecalis ATCC 7937; experiment: as above; type: cell-based; conditions: ATCC7937
Method: as §1

[6] = tested on: Enterococcus faecium ATCC 19434; experiment: as above; type: cell-based; conditions: ATCC19434
Method: as §1

[7] = tested on: Enterococcus hirae ATCC 8790; experiment: as above; type: cell-based; conditions: ATCC8790
Method: as §1

[8] = tested on: Escherichia coli ATCC 8739; experiment: as above; type: cell-based; conditions: ATCC8739
Method: as §1

[9] = tested on: Klebsiella pneumoniae ATCC 13883; experiment: as above; type: cell-based; conditions: ATCC13883
Method: as §1

[10] = tested on: Listeria innocua ATCC 33090; experiment: as above; type: cell-based; conditions: ATCC33090
Method: as §1

[11] = tested on: Listeria monocytogenes ATCC 14780; experiment: as above; type: cell-based; conditions: ATCC14780
Method: as §1

[12] = tested on: Micrococcus luteus ATCC 9341; experiment: as above; type: cell-based; conditions: ATCC9341
Method: as §1

[13] = tested on: Proteus mirabilis ATCC 29936; experiment: as above; type: cell-based; conditions: ATCC29936
Method: as §1

[14] = tested on: Pseudomonas aeruginosa ATCC 27853; experiment: as above; type: cell-based; conditions: ATCC27853
Method: as §1

[15] = tested on: Staphylococcus aureus ATCC 25923; experiment: as above; type: cell-based; conditions: ATCC25923
Method: as §1

[16] = tested on: Staphylococcus aureus ATCC 43300 (MRSA); experiment: as above; type: cell-based
Method: as §1

[17] = tested on: Staphylococcus aureus mp 1 (inducible MRSA); experiment: as above; type: cell-based
Method: as §1

[18] = tested on: Staphylococcus epidermidis ATCC 12228; experiment: as above; type: cell-based; conditions: ATCC12228
Method: as §1

[19] = tested on: Streptococcus pneumoniae ATCC 33400; experiment: as above; type: cell-based; conditions: ATCC33400
Method: as §1

[20] = tested on: Streptococcus pneumoniae ATCC 49619; experiment: as above; type: cell-based; conditions: ATCC49619
Method: as §1

[21] = tested on: Streptococcus pneumoniae D39; experiment: as above; type: cell-based
Method: as §1

[22] = tested on: all of the Staphylococcus aureus tested strains; experiment: In-vitro antibacterial activity (MIC), Staphylococcus aureus strains; type: cell-based
Method: as §1

[23] = tested on: protoplasts of S. aureus ATCC43300 resistant strain; experiment: Effect on protoplasts; type: cell-based, Staphylococcus aureus; conditions: concentration equivalent to 4 times the MIC; after ten minutes
Method: The importance of this hit compound is further underlined by its very promising minimum inhibitory concentrations (MICs) against several Gram-positive bacterial strains, including MRSA (32 µg/mL). […] This assumption is confirmed by the fact that for S. aureus ATCC25923 strain, sensitive to penicillin and devoid of PBP2a, compound 1 has the same MIC value as for the other two resistant S. aureus strains (Table 2) where PBP2a is present. To better understand the antibacterial activity of compound 1, we performed an experiment to evaluate the effect of compound 1 on the protoplasts of S. aureus ATCC43300 resistant strain, at a concentration equivalent to 4 times the MIC. […] Further analysis is needed to better understand the precise mode of action of these inhibitors on the bacterial cell.

[24] = tested on: S. aureus ATCC43300 resistant strain; experiment: Killing curves experiments; type: cell-based, Staphylococcus aureus; conditions: concentration equivalent to 4 times the MIC; data not shown

T1 sequence (P07944 whole entry): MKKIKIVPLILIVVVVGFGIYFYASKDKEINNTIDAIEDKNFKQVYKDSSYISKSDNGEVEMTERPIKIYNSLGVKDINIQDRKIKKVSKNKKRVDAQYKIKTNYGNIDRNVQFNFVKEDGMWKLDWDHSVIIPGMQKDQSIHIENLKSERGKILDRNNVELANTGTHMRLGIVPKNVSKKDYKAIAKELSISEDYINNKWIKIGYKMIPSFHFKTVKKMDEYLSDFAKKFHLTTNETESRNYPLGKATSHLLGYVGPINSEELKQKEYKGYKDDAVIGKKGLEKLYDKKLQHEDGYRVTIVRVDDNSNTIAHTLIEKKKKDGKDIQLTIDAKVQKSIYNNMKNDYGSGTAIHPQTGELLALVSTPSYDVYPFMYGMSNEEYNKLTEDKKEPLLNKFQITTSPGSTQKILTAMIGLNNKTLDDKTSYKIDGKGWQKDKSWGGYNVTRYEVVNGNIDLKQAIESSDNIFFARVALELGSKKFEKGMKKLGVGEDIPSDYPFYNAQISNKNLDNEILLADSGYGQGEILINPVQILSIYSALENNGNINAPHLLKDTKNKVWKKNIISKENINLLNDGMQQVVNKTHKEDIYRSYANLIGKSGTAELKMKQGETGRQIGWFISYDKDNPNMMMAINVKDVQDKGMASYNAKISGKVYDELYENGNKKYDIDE

CCCCOc1ccc2cc(S(=O)(=O)Nc3ccccc3C(=O)O)ccc2c1 [compound 1, 2-(6-butoxynaphthalene-2-sulfonamido)benzoic acid]
remaining activity at 1000 µM ([1]; 4 h, residual activity of the enzyme at 1 mM inhibitor, 0.01% Triton X-100, mean of three experiments, read-out: PBP2a RA [%]): 0%
IC50 ([1]; in the presence of 0.01% Triton X-100): 97 µM
MIC [2]: 2 µg/mL (≈ 5.01 µM)
MIC [3]: > 1020 µg/mL
MIC [4]: 32 µg/mL (≈ 80.1 µM)
MIC [5]: 16 µg/mL (≈ 40.1 µM)
MIC [6]: 64 µg/mL (≈ 160 µM)
MIC [7]: 16 µg/mL (≈ 40.1 µM)
MIC [8]: > 1020 µg/mL
MIC [9]: > 1020 µg/mL
MIC [10]: 16 µg/mL (≈ 40.1 µM)
MIC [11]: 16 µg/mL (≈ 40.1 µM)
MIC [12]: 2 µg/mL (≈ 5.01 µM)
MIC [13]: > 1020 µg/mL
MIC [14]: > 1020 µg/mL
MIC [15]: 32 µg/mL (≈ 80.1 µM)
MIC [16]: 32 µg/mL (≈ 80.1 µM)
MIC [17]: 32 µg/mL (≈ 80.1 µM)
MIC [18]: 32 µg/mL (≈ 80.1 µM)
MIC [19]: 1 µg/mL (≈ 2.5 µM)
MIC [20]: 1 µg/mL (≈ 2.5 µM)
MIC [21]: 1 µg/mL (≈ 2.5 µM)
MIC ([22]; MRSA, read-out: minimum inhibitory concentration (MIC) against MRSA): 32 µg/mL
MIC ([22]; all S. aureus tested strains, converted from µg/ml, read-out: MIC value for all of the Staphylococcus aureus tested strains): 80 µM
MIC ([22]; all S. aureus tested strains, read-out: MIC value for all of the Staphylococcus aureus tested strains): 32 µg/mL
effect on protoplasts [23]: complete lysis of protoplasts
killing curves, bacterial count [24]: no viable cells were observed after 120 min
melting point: 192 to 194 °C
